Experimental data taken from patent publication US10662221B2, “Cystargolide compounds and uses thereof” (UNIVERSITY OF PRINCE EDWARD ISLAND, priority 2015, dated 2020).
pIC50: −log10 of the molar value. Values joined by “and” are separate entries in the source; they are usually repeats but may differ in a detail not shown here. Identical values can stand only once.

Key:
rabbit 20S proteasome = conditions: read-out: IC50, inhibition of chymotrypsin-like activity of the rabbit 20S proteasome; cited from earlier work
[1] = Stability in mild acidic conditions; type: physicochemical; conditions: resulting in polymerization
Text: The fifth degree of unsaturation was attributed to cyclization. Two options were therefore available; a macrolactone cyclization between C-1 and the C-2″ hydroxyl, or a β-lactone between C-4″ and the C-2″ hydroxyl. The presence of IR absorption at 1835 cm^−1 was characteristic of a β-lactone carbonyl stretching band and therefore strongly supports cyclization between C-4″ and the hydroxyl at C-2″. The lack of HMBC correlation between H-2″ and C-1 also supported a β-lactone cyclization. The presence of the β-lactone was further confirmed by the instability of 1 in mild acidic conditions resulting in polymerization. The relative configuration at the C-2″ and C-3″ positions on the β-lactone moiety was determined from an analysis of the ^3JHH values.

human 20S proteasome = target: T1, human 20S proteasome (Homo sapiens, UniProt P28074); test: 20S proteasome inhibition assay (chymotrypsin-like activity, Suc-LLVY-AMC cleavage); type: biochemical; conditions: purified human erythrocyte 20S proteasome 3 μg/mL, Suc-LLVY-AMC 75 μM, 30° C., 10 min preincubation, triplicate ± SD
T1 construct: purified human erythrocyte 20S proteasome; purchased Enzo Life Sciences BML-PW8720-0020; host or cells: purified from human erythrocytes (native tissue material)
Protocol: Varying concentrations of 1 and 2 were incubated with purified human 20S proteasome. To determine the chymotrypsin-like activity, the fluorogenic substrate Suc-LLVY-AMC was added and fluorescence was recorded to measure the rate of enzyme activity.
1 and 2 were tested for proteasome inhibition using purified human erythrocyte 20S proteasome (Enzo Life Sciences: BML-PW8720-0020). 20S proteasome was diluted to a final concentration of 3 μg/mL in assay buffer (50 mM Tris/HCl, pH 7.5, 25 mM KCl, 10 mM NaCl, 1 mM MgCl2, and 0.03% SDS), and incubated with inhibitors at varying concentrations at 30° C. for 10 minutes. To determine the chymotrypsin-like activity, the reaction was initiated by the addition of the fluorogenic substrate Suc-LLVY-AMC (Enzo Life Sciences, BML-9802-9090) at a final concentration of 75 μM. The rate of cleavage of the substrate was determined by measuring fluorescence using a Spectra Max M2 (Molecular Devices) plate reader at an excitation wavelength of 360 nm and emission of 460 nm. The fluorescence was recorded every 15 seconds for 30 minutes, and the linear regression between 15 and 30 minutes were used to calculate the rate of substrate cleavage (AFU/s). Control wells were included that contained no inhibitor to show the maximum substrate cleavage rate, epoxomicin (0.5 μM) and no enzyme (Blank) to show the minimum response. The IC50 values, the concentration required to reduce the enzyme response by 50 percent, were calculated by Prism 6.0 (GraphPad Software) using a nonlinear regression dose-response, variable slope model based on triplicate measurements±standard deviation.

Row | Compound | pIC50 (rabbit 20S proteasome) | stability in mild acidic conditions [1] | pIC50 (human 20S proteasome)
1 | belactosin C | 6.68 |  | 
2 | CCC(C)[C@H](NC(=O)[C@@H](NC(=O)C1OC(=O)C1C(C)C)C(C)C)C(=O)O (some centres unmarked) [Compound 1, Cystargolide A] |  | instability | 6.44 and 6.46
3 | belactosin A | 6.68 |  | 
4 | CC(C)C1C(=O)OC1C(=O)N[C@H](C(=O)N[C@H](C(=O)O)C(C)C)C(C)C (some centres unmarked) [Compound 2, Cystargolide B] |  |  | 6.03
